ChEMBL document CHEMBL1141818, “Annonaceous acetogenins: recent progress” (J Nat Prod, 1999)
Values after ≈ are worked out from the molar mass of the structure shown.

What was measured:
Blattella germanica [1] = assay: Ratio of LT50 for Blattella germanica Muncie fifth instars to LT50 for Blattella germanica Jwax fifth instars; type: functional
Blattella germanica [2] = assay: Ratio of LT50 for Blattella germanica Muncie second instars to LT50 for Blattella germanica Jwax second instars; type: functional
Bel-7402 = assay: Cytotoxicity against human Bel-7402 cells; type: functional, cell-based
KB = assay: Cytotoxicity against human KB cells; type: functional, cell-based; details: Homo sapiens, KB
HCT-8 = assay: Cytotoxicity against human HCT8 cells; type: functional, cell-based
A498 = assay: Cytotoxicity against human A-498 cells; type: functional; details: for EC50: Homo sapiens, A498, read-out: ED50 (the source's name)
PC-3 = assay: Cytotoxicity against human PC-3 cells; type: functional; details: for EC50: Homo sapiens, PC-3, read-out: ED50 (the source's name)
HT-29 = assay: Cytotoxicity against human HT-29 cells; type: functional; details: for EC50: Homo sapiens, HT-29, read-out: ED50 (the source's name)
MCF7 = assay: Cytotoxicity against human MCF7 cells; type: functional; details: for EC50: Homo sapiens, MCF7, read-out: ED50 (the source's name)
MIA PaCa-2 = assay: Cytotoxicity against human MIA PaCa2 cells; type: functional; details: for EC50: Homo sapiens, MIA PaCa-2, read-out: ED50 (the source's name)
Artemia = assay: Toxicity in brine shrimp; type: organism-based; details: in vivo
A549 = assay: Cytotoxicity against human A549 cells; type: functional; details: for EC50: Homo sapiens, A549, read-out: ED50 (the source's name)

CCCCCCCCCC[C@@H](O)[C@H]1CC[C@H]([C@H]2CC[C@H]([C@H](O)CCCCCCCC[C@@H](O)CC3=C[C@H](C)OC3=O)O2)O1 [PARVIFLORIN]
Ratio (Blattella germanica [1]): 1.5
Ratio (Blattella germanica [2]): 0.9

CCCCCCCCCCCC[C@H](O)[C@@H]1CC[C@@H]([C@@H](O)CCCCCCC(O)CCCCC[C@@H](O)CC2=C[C@H](C)OC2=O)O1 (stereo partly specified) [ANNOMONTACIN]
Ratio (Blattella germanica [1]): 0.2
Ratio (Blattella germanica [2]): 0.6

CCCCCCCCCCCC[C@@H](O)[C@H](O)CC[C@@H](O)[C@H](O)CCCC[C@H](O)CCCCC[C@H](CC1=C[C@@](C)(O)OC1=O)OC(C)=O [DONNAIENIN D]
IC50 (Bel-7402): > 10 µg/mL
IC50 (KB): > 10 µg/mL
IC50 (HCT-8): > 10 µg/mL

CCCCCCCCCCC(O)C1CCC(C2CCC(C(O)CCCCCCCC[C@H](O)CC3=C[C@@H](C)OC3=O)O2)O1 (stereo partly specified) [ASIMICIN]
Ratio (Blattella germanica [1]): 1.6
Ratio (Blattella germanica [2]): 0.9

CNC(=O)Oc1ccccc1OC(C)C [PROPOXUR]
Ratio (Blattella germanica [1]): 1.7
Ratio (Blattella germanica [2]): 3.8

CC1(C)CNC(=NN=C(/C=C/c2ccc(C(F)(F)F)cc2)/C=C/c2ccc(C(F)(F)F)cc2)NC1 [HYDRAMETHYLNON]
Ratio (Blattella germanica [1]): 0.6
Ratio (Blattella germanica [2]): 1

CCCCCCCCCCCC[C@@H](O)[C@H]1CC[C@H]([C@H](O)CCCC[C@H](O)CCCCC[C@H](CC2=C[C@@](C)(O)OC2=O)OC(C)=O)O1 [DONNAIENIN C]
IC50 (Bel-7402): 7.1 µg/mL (≈ 10.8 µM)
IC50 (KB): > 10 µg/mL
IC50 (HCT-8): > 10 µg/mL

CCCCCCCCCCCCCC[C@H](O)[C@@H]1C[C@@H](O)[C@@H]([C@@H](O)CC[C@@H](O)CCCCC[C@@H](O)CC2=C[C@H](C)OC2=O)O1 [DONNAIENIN]
IC50 (Bel-7402): 6.7 µg/mL (≈ 10.9 µM)
IC50 (KB): > 10 µg/mL
IC50 (HCT-8): 6.6 µg/mL (≈ 10.8 µM)

CCCCCCCCCCCC[C@@H](O)[C@H]1CC[C@H]([C@H](O)CCCCC(O)CCCCC[C@@H](O)CC2=C[C@@](C)(O)OC2=O)O1 (stereo partly specified) [GONIODONIN]
IC50 (HCT-8): < 10 µg/mL

CCCCC[C@H](O)CCCC[C@H](O)[C@H]1CC[C@H]([C@H]2CC[C@H]([C@H](O)CCCC[C@H](O)CCCCCCCC3=C[C@H](C)OC3=O)O2)O1 [PURPURENIN]
EC50 (A498): 1.3 µg/mL (≈ 2.03 µM)
EC50 (PC-3): 1.1 µg/mL (≈ 1.72 µM)
EC50 (HT-29): 0.32 µg/mL (≈ 0.501 µM)
EC50 (MCF7): 1.7 µg/mL (≈ 2.66 µM)
EC50 (MIA PaCa-2): 2 µg/mL (≈ 3.13 µM)
LC50 (Artemia): 2.9 ×10⁻² ug/ml
EC50 (A549): 1.3 µg/mL (≈ 2.03 µM)

CCCCCCCCCC[C@H](O)[C@H]1CC[C@H]([C@H](O)CCCCCC(O)CCCCCCC2CC(CC(C)=O)C(=O)O2)O1 (mixture of isomers)
EC50 (A498): 0.0067 µg/mL
EC50 (PC-3): 2.24 µg/mL
EC50 (HT-29): 0.35 µg/mL
EC50 (MCF7): 0.0011 µg/mL
EC50 (MIA PaCa-2): 0.0095 µg/mL
LC50 (Artemia): 9.7 ×10⁻² ug/ml
EC50 (A549): 0.21 µg/mL

CNC(=O)Oc1cccc2c1OC(C)(C)O2 [BENDIOCARB]
Ratio (Blattella germanica [1]): 0.9
Ratio (Blattella germanica [2]): 2.5

CCCCCCCCCCCC[C@H](O)[C@H](O)CC[C@H](O)[C@@H]1CC[C@@H](C[C@H](O)CCCCC[C@@H](O)CC2=C[C@@](C)(O)OC2=O)O1 [GARDNERININ]
IC50 (Bel-7402): > 10 µg/mL
IC50 (KB): > 10 µg/mL
IC50 (HCT-8): 6.6 µg/mL (≈ 10.5 µM)

CCOP(=S)(OCC)Oc1nc(Cl)c(Cl)cc1Cl [CHLORPYRIFOS]
Ratio (Blattella germanica [1]): 8
Ratio (Blattella germanica [2]): 3.8

CCCCCCCCCCCC[C@H](O)[C@@H]1CC[C@H]([C@H](O)CCCCC(O)CCCCC[C@@H](O)CC2=C[C@@](C)(O)OC2=O)O1 (stereo partly specified)
IC50 (HCT-8): < 10 µg/mL

CCCCCCCCCC[C@@H](O)[C@H]1CC[C@@H]([C@H]2CC[C@H]([C@H](O)CCCCCCCCCC[C@@H]3CC(CC(C)=O)C(=O)O3)O2)O1 (mixture of isomers)
EC50 (A498): 0.49 µg/mL
EC50 (PC-3): 2.8 µg/mL
EC50 (HT-29): 1.6 µg/mL
ED50 (MCF7): 1.3 ×10⁻⁸ ug/ml
EC50 (MIA PaCa-2): 0.069 µg/mL
LC50 (Artemia): 2 ×10⁻² ug/ml
ED50 (A549): 4.6 ×10⁻⁴ ug/ml

CCCCCCCCCC[C@H](O)[C@@H](O)CCCC[C@H]1CC[C@H]([C@H]2CC[C@H]([C@H](O)CCCCC[C@@H](O)CC3=C[C@H](C)OC3=O)O2)O1 (stereo in doubt) [GLACIN B]
ED50 (A498): 1.4 µg/mL (≈ 2.19 µM)
ED50 (PC-3): 1.2 µg/mL (≈ 1.88 µM)
ED50 (HT-29): 1.9 ×10⁻² ug/ml
ED50 (MCF7): 1.8 ×10⁻³ ug/ml
ED50 (MIA PaCa-2): 2.8 ×10⁻¹ ug/ml
LC50 (Artemia): 3.1 ×10⁻¹ ug/ml
ED50 (A549): 1.6 ×10⁻¹ ug/ml
